Data: the supplement of paper PMC10307832

Tests used:
Test in all cases: relative viability (nuclei count vs DMSO), 5 days (fraction); higher = more cells survive
Metformin + Pemetrexed = compound: CN(C)C(=N)NC(=N)N [Metformin] + Nc1nc2[nH]cc(CCc3ccc(C(=O)N[C@@H](CCC(=O)O)C(=O)O)cc3)c2c(=O)[nH]1 [Pemetrexed] (partner 0.2 µM)
Procedure, shortened: (§1)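 For relative viability, nuclei counts in treated wells were divided by those in vehicle wells. Lung cancer cell lines had been pin-tool dosed in 1536-well plates the day after seeding and cultured for 5 days, then fixed and stained in one step (final 0.05% Triton X-100, 1% formaldehyde, 1 ug/ml Hoechst) and imaged at 4×. Doses were one drug alone or a fixed anchor-drug dose plus five library-drug doses (not always all listed) in √10 steps, and values are duplicate-plate medians.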

Apatinib + Decitabine = compound: N#CC1(c2ccc(NC(=O)c3cccnc3NCc3ccncc3)cc2)CCCC1 [Apatinib] + Nc1ncn([C@H]2C[C@H](O)[C@@H](CO)O2)c(=O)n1 [Decitabine] (partner 2 µM)
Procedure, shortened: as §1

Apatinib + Alpelisib = compound: N#CC1(c2ccc(NC(=O)c3cccnc3NCc3ccncc3)cc2)CCCC1 [Apatinib] + Cc1nc(NC(=O)N2CCC[C@H]2C(N)=O)sc1-c1ccnc(C(C)(C)C(F)(F)F)c1 [Alpelisib] (partner 2 µM)
Procedure, shortened: as §1

Metformin + Palbociclib = compound: CN(C)C(=N)NC(=N)N [Metformin] + CC(=O)c1c(C)c2cnc(Nc3ccc(N4CCNCC4)cn3)nc2n(C2CCCC2)c1=O [Palbociclib] (partner 0.5 µM)
Procedure, shortened: as §1

Cell Line	relative viability (Metformin + Pemetrexed; first compound 10 µM)	relative viability (Metformin + Pemetrexed; first compound 31.62 µM)	relative viability (Metformin + Pemetrexed; first compound 100 µM)	relative viability (Metformin + Pemetrexed; first compound 316.23 µM)	relative viability (Metformin + Pemetrexed; first compound 1000 µM)	relative viability (Apatinib + Decitabine; first compound 0.08 µM)	relative viability (Apatinib + Decitabine; first compound 0.253 µM)	relative viability (Apatinib + Decitabine; first compound 0.8 µM)	relative viability (Apatinib + Decitabine; first compound 2.53 µM)	relative viability (Apatinib + Decitabine; first compound 8 µM)	relative viability (Apatinib + Alpelisib; first compound 0.08 µM)	relative viability (Apatinib + Alpelisib; first compound 0.253 µM)	relative viability (Apatinib + Alpelisib; first compound 0.8 µM)	relative viability (Apatinib + Alpelisib; first compound 2.53 µM)	relative viability (Apatinib + Alpelisib; first compound 8 µM)	relative viability (Metformin + Palbociclib; first compound 10 µM)	relative viability (Metformin + Palbociclib; first compound 31.62 µM)	relative viability (Metformin + Palbociclib; first compound 100 µM)	relative viability (Metformin + Palbociclib; first compound 316.23 µM)	relative viability (Metformin + Palbociclib; first compound 1000 µM)
NCI-H1755	0.416	0.443	0.392	0.34	0.376	0.712	0.701	0.644	0.91	0.837	0.933	0.946	0.909	0.899	0.845	0.411	0.397	0.43	0.433	0.416
NCI-H2405	–	1.16	1.04	0.619	0.679	0.83	0.854	0.711	0.712	0.776	0.855	1.1	0.91	0.841	0.81	–	0.498	0.485	0.487	0.344
NCI-H1993	0.521	0.507	0.588	0.558	0.633	0.604	0.623	0.519	0.559	0.544	0.779	0.675	0.703	0.656	0.654	0.63	0.701	0.739	0.576	0.67
NCI-H322M	0.68	0.621	0.644	0.606	0.594	0.75	0.709	0.64	0.833	0.783	0.782	0.744	0.766	0.89	0.782	0.54	0.495	0.512	0.551	0.488
EMC-BAC-2	0.429	0.488	0.452	0.492	0.48	–	0.967	0.925	0.954	1.01	0.759	0.785	0.76	0.751	0.678	0.499	0.547	0.502	0.496	0.423
PC-14	0.167	0.154	0.164	0.14	0.157	0.28	0.293	0.189	0.228	0.28	0.935	0.861	0.876	0.875	0.838	0.533	0.586	0.547	0.461	0.539
RERF-LC-KJ	0.491	0.447	0.504	0.426	0.455	0.755	0.7	0.637	0.66	0.746	0.857	0.875	0.779	0.751	0.823	0.907	1.04	0.896	0.823	0.993
